Assay results published in patent publication US12344600B2, “c-Myc mRNA translation modulators and uses thereof in the treatment of cancer” (Anima Biotech Inc., priority 2022, dated 2025).

tested on: c-Myc; assay: c-Myc immunofluorescence assay; type: cell-based, human; conditions: A549 cells, 24 hours, anti-c-Myc immunofluorescence
Summary of the method: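 Read-out is imaged c-Myc immunofluorescence, nucleus-segmented, in A549 lung carcinoma cells exposed to compound dose series for 24 h after 48 h growth. Fixation 4% paraformaldehyde, Triton permeabilization, antibody staining at room temperature; EC50 from logistic fit of signal versus concentration.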

| SMILES | Myc Efficacy (−LogEC50) |
| --- | --- |
| COc1ccccc1-c1noc(N2CCC(C(=O)NCC3CCN(Cc4ccc(C)cc4)C3)CC2)n1 (stereo not shown) [Compound 189, 1-(3-(2-methoxyphenyl)-1,2,4-oxadiazol-5-yl)-N-((1-(4-methylbenzyl)pyrrolidin-3-yl)methyl)piperidine-4-carboxamide] | + (+ >3 and <5) |
| COc1ccc(-c2noc(N3CCN(C(=O)N4CCC(OC)CC4)CC3)n2)cc1 [Compound 190, (4-(3-(4-methoxyphenyl)-1,2,4-oxadiazol-5-yl)piperazin-1-yl)(4-methoxypiperidin-1-yl)methanone] | + (+ >3 and <5) |
| CNC(=O)N1CCN(c2nc(-c3ccc(OC)cc3)no2)CC1 [Compound 191, 4-(3-(4-methoxyphenyl)-1,2,4-oxadiazol-5-yl)-N-methylpiperazine-1-carboxamide] | + (+ >3 and <5) |
| COc1ccc(-c2noc(N3CCC(C(=O)Nc4ccc(Cl)cc4)CC3)n2)cc1 [Compound 192, N-(4-chlorophenyl)-1-(3-(4-methoxyphenyl)-1,2,4-oxadiazol-5-yl)piperidine-4-carboxamide] | + (+ >3 and <5) |
| COc1ccc(-c2noc(N3CCN(C(=O)Nc4ccc(Cl)cc4)CC3)n2)cc1 [Compound 193, N-(4-chlorophenyl)-4-(3-(4-methoxyphenyl)-1,2,4-oxadiazol-5-yl)piperazine-1-carboxamide] | ++ (++ ≥5 and <6) |
| COc1ccc(-c2noc(N3CCN(C(=O)Nc4cccc(Cl)c4)CC3)n2)cc1 [Compound 194, N-(3-chlorophenyl)-4-(3-(4-methoxyphenyl)-1,2,4-oxadiazol-5-yl)piperazine-1-carboxamide] | + (+ >3 and <5) |
| COc1ccc(-c2noc(N3CCN(C(=O)Nc4ccccc4Cl)CC3)n2)cc1 [Compound 195, N-(2-chlorophenyl)-4-(3-(4-methoxyphenyl)-1,2,4-oxadiazol-5-yl)piperazine-1-carboxamide] | + (+ >3 and <5) |
| COc1ccc(-c2coc(N3CCC(C(=O)NCC4CCN(Cc5ccc(C)cc5)C4)CC3)n2)cc1 (stereo not shown) [Compound 196, 1-(4-(4-methoxyphenyl)oxazol-2-yl)-N-((1-(4-methylbenzyl)pyrrolidin-3-yl)methyl)piperidine-4-carboxamide] | ++ (++ ≥5 and <6) |
| COc1ccc(-c2noc(C3CCC(C(=O)NCC4CCN(CCO)C4)CC3)n2)cc1 (stereo not shown) [Compound 197, (1r,4r)-N-((1-(2-hydroxyethyl)pyrrolidin-3-yl)methyl)-4-(3-(4-methoxyphenyl)-1,2,4-oxadiazol-5-yl)cyclohexane-1-carboxamide] | + (+ >3 and <5) |
| Cc1ccc(CN2CCC(CNC(=O)C3CCN(c4nc(-c5cccc(C#N)c5)no4)CC3)C2)cc1 (stereo not shown) [Compound 198, 1-(3-(3-cyanophenyl)-1,2,4-oxadiazol-5-yl)-N-((1-(4-methylbenzyl)pyrrolidin-3-yl)methyl)piperidine-4-carboxamide] | ++ (++ ≥5 and <6) |
| Cc1ccc(CN2CCC(CNC(=O)C3CCN(c4nc(-c5cccc(O)c5)no4)CC3)C2)cc1 (stereo not shown) [Compound 199, 1-(3-(3-hydroxyphenyl)-1,2,4-oxadiazol-5-yl)-N-((1-(4-methylbenzyl)pyrrolidin-3-yl)methyl)piperidine-4-carboxamide] | + (+ >3 and <5) |
| O=C(NCc1cccnc1)C1CCN(c2nc(-c3ccncc3)no2)CC1 [Compound 200, N-(pyridin-3-ylmethyl)-1-(3-(pyridin-4-yl)-1,2,4-oxadiazol-5-yl)piperidine-4-carboxamide] | + (+ >3 and <5) |
| COc1ccc(-c2coc(N3CCC(C(=O)NCc4cccnc4)CC3)n2)cc1 [Compound 201, 1-(4-(4-methoxyphenyl)oxazol-2-yl)-N-(pyridin-3-ylmethyl)piperidine-4-carboxamide] | + (+ >3 and <5) |
| O=C(C1CCN(c2nc(-c3ccncc3)no2)CC1)N1CCOCC1 [Compound 202, morpholino(1-(3-(pyridin-4-yl)-1,2,4-oxadiazol-5-yl)piperidin-4-yl)methanone] | + (+ >3 and <5) |
| COc1ccc(-c2coc(N3CCC(C(=O)N4CCOCC4)CC3)n2)cc1 [Compound 203, (1-(4-(4-methoxyphenyl)oxazol-2-yl)piperidin-4-yl)(morpholino)methanone] | + (+ >3 and <5) |
| COc1ccc(-c2noc(N3CCC(C(=O)N4CCN(C)CC4)CC3)n2)cc1 [Compound 204, (1-(3-(4-methoxyphenyl)-1,2,4-oxadiazol-5-yl)piperidin-4-yl)(4-methylpiperazin-1-yl)methanone] | + (+ >3 and <5) |
| COc1ccc(-c2noc(N3CCC(C(=O)N4CCN(c5ccccc5)CC4)CC3)n2)cc1 [Compound 205, (1-(3-(4-methoxyphenyl)-1,2,4-oxadiazol-5-yl)piperidin-4-yl)(4-phenylpiperazin-1-yl)methanone] | + (+ >3 and <5) |

| SMILES | Myc Efficacy (−LogEC50) |
| --- | --- |
| COc1ccc(-c2noc(N3CCN(C(=O)NCC4CCN(C)C4)CC3)n2)cc1 (stereo not shown) [Compound 206, 4-(3-(4-methoxyphenyl)-1,2,4-oxadiazol-5-yl)-N-((1-methylpyrrolidin-3-yl)methyl)piperazine-1-carboxamide] | + (+ >3 and <5) |
| COc1ccc(-c2noc(N3CCN(C(=O)NCCCN4CCC(Cc5ccccc5)CC4)CC3)n2)cc1 [Compound 207, N-(3-(4-benzylpiperidin-1-yl)propyl)-4-(3-(4-methoxyphenyl)-1,2,4-oxadiazol-5-yl)piperazine-1-carboxamide] | +++ (+++ ≥6) |
| COc1ccc(-c2noc(N3CCN(C(=O)NCCCN4CCC(C)CC4)CC3)n2)cc1 [Compound 208, 4-(3-(4-methoxyphenyl)-1,2,4-oxadiazol-5-yl)-N-(3-(4-methylpiperidin-1-yl)propyl)piperazine-1-carboxamide] | ++ (++ ≥5 and <6) |
| COc1ccc(-c2noc(N3CCN(C(=O)Nc4ccccc4)CC3)n2)cc1 [Compound 209, 4-(3-(4-methoxyphenyl)-1,2,4-oxadiazol-5-yl)-N-phenylpiperazine-1-carboxamide] | + (+ >3 and <5) |
| COc1ccc(-c2noc(N3CCC(C(=O)Nc4ccc(C)cc4)CC3)n2)cc1 [Compound 210, 1-(3-(4-methoxyphenyl)-1,2,4-oxadiazol-5-yl)-N-(p-tolyl)piperidine-4-carboxamide] | + (+ >3 and <5) |
| COc1ccc(-c2noc(N3CCC(C(=O)Nc4cccc(C)c4)CC3)n2)cc1 [Compound 211, 1-(3-(4-methoxyphenyl)-1,2,4-oxadiazol-5-yl)-N-(m-tolyl)piperidine-4-carboxamide] | + (+ >3 and <5) |
| COc1ccc(-c2noc(N3CCC(C(=O)Nc4cccc(Cl)c4)CC3)n2)cc1 [Compound 212, N-(3-chlorophenyl)-1-(3-(4-methoxyphenyl)-1,2,4-oxadiazol-5-yl)piperidine-4-carboxamide] | + (+ >3 and <5) |
| COc1ccc(-c2noc(N3CCC(C(=O)Nc4ccccc4C)CC3)n2)cc1 [Compound 213, 1-(3-(4-methoxyphenyl)-1,2,4-oxadiazol-5-yl)-N-(o-tolyl)piperidine-4-carboxamide] | + (+ >3 and <5) |
| COc1ccc(-c2noc(N3CCC(c4nc5ccccc5[nH]4)CC3)n2)cc1 [Compound 214, 5-(4-(1H-benzo[d]imidazol-2-yl)piperidin-1-yl)-3-(4-methoxyphenyl)-1,2,4-oxadiazole] | + (+ >3 and <5) |
| COc1ccc(-c2noc(C3CCC(C(=O)NCC4CCN(CCO)C4)CC3)n2)cc1 (stereo not shown) [Compound 215, (1s,4s)-N-((1-(2-hydroxyethyl)pyrrolidin-3-yl)methyl)-4-(3-(4-methoxyphenyl)-1,2,4-oxadiazol-5-yl)cyclohexane-1-carboxamide] | + (+ >3 and <5) |
| COc1ccc(-c2noc(N3CCN(C(=O)N4CCC(Oc5ccccc5)CC4)CC3)n2)cc1 [Compound 216, (4-(3-(4-methoxyphenyl)-1,2,4-oxadiazol-5-yl)piperazin-1-yl)(4-phenoxypiperidin-1-yl)methanone] | + (+ >3 and <5) |
| COc1ccc(-c2noc(N3CCC(C(=O)NCC4CCN(C)CC4)CC3)n2)cc1 [Compound 217, 1-(3-(4-methoxyphenyl)-1,2,4-oxadiazol-5-yl)-N-((1-methylpiperidin-4-yl)methyl)piperidine-4-carboxamide] | − (− ≤3) |
| COc1ccc(-c2noc(N3CCC(C(=O)NC4CCN(C)CC4)CC3)n2)cc1 [Compound 218, 1-(3-(4-methoxyphenyl)-1,2,4-oxadiazol-5-yl)-N-(1-methylpiperidin-4-yl)piperidine-4-carboxamide] | − (− ≤3) |
| COc1ccc(-c2noc(N3CCC(C(=O)NCC4CCN(C)C4)CC3)n2)cc1 (stereo not shown) [Compound 219, 1-(3-(4-methoxyphenyl)-1,2,4-oxadiazol-5-yl)-N-((1-methylpyrrolidin-3-yl)methyl)piperidine-4-carboxamide] | − (− ≤3) |
| COc1ccc(-c2noc(N3CCC(C(=O)NCC4CCN(CC5CC5)C4)CC3)n2)cc1 (stereo not shown) [Compound 220, N-((1-(cyclopropylmethyl)pyrrolidin-3-yl)methyl)-1-(3-(4-methoxyphenyl)-1,2,4-oxadiazol-5-yl)piperidine-4-carboxamide] | + (+ >3 and <5) |
| COc1ccc(-c2noc(N3CCN(C(=O)NCC4CCN(CC5CC5)C4)CC3)n2)cc1 (stereo not shown) [Compound 221, N-((1-(cyclopropylmethyl)pyrrolidin-3-yl)methyl)-4-(3-(4-methoxyphenyl)-1,2,4-oxadiazol-5-yl)piperazine-1-carboxamide] | + (+ >3 and <5) |
| COc1ccc(-c2noc(N3CCC(C(=O)NCC4CCN(C(=O)c5ccc(C)cc5)C4)CC3)n2)cc1 (stereo not shown) [Compound 222, 1-(3-(4-methoxyphenyl)-1,2,4-oxadiazol-5-yl)-N-((1-(4-methylbenzoyl)pyrrolidin-3-yl)methyl)piperidine-4-carboxamide] | ++ (++ ≥5 and <6) |
